Results published in US9481713B2, “Self-assembling peptides incorporating modifications and methods of use thereof” (Massachusetts Institute of Technology, priority 2010, dated 2016).

Key:
[1] = test system: human periodontal ligament fibroblasts (HPDLF); test: Periodontal ligament fibroblast migration into peptide scaffolds (confocal microscopy); type: cell-based; settings: for fibroblast adhesion, proliferation and 3-D migration into scaffold: reconstructed confocal images
Protocol: (§1) 1% RADA16 solution was obtained as PuraMatrix (3DM Inc./BD Bioscience). VEVK9, VEVK12 and the functionalized peptides were obtained from CPC Scientific (San Jose, Calif.) and dissolved in water at final concentration of 1% […]. The functionalized peptide solutions were then mixed with 1% RADA16, VEVK9 or VEVK12 solution at a ratio of 1:1. Each peptide solution was then loaded in the cell culture plate insert (BD Bioscience, Bedford, Mass.). The medium described below was added to induce hydrogel formation.
(§2) Primary isolated human periodontal ligament fibroblasts were commercially obtained from Lonza Inc. (HPDLF, Walkersville, Md.) and routinely grown in the culture medium (SCGM, Walkersville, Md.) on regular cell culture flask. The cells were plated at 2×10^4 cells on the gel in the inserts. The culture medium was changed every three days. Additional growth factors were not used.
(§3) Following the experiments, the cells on the gel were fixed with 4% paraformaldehyde for 15 min and permeabilized with 0.1% Triton X-100 for 5 min at room temperature. Fluorescent Rhodamin phalloidin and SYTOX® Green (Molecular Probes, Eugene, Oreg.) were used for labeling F-actin and nuclei, respectively. Images were taken using a fluorescence microscope (Axiovert 25, ZEISS) or laser confocal scanning microscope (Olympus FV300).
The functionalized peptide was obtained from CPC Scientific (San Jose, Calif.) and dissolved in water at final concentration of 1% […] as well. The functionalized peptide solutions were then mix with 1% VEVK9 or VEVK12 solution. The each peptide solution was loaded in the cell culture plate insert (BD Bioscience, Bedford, Mass.). The medium described below was added to induce hydrogel formation.

[2] = test system: human periodontal ligament fibroblasts (HPDLF); test: Fluorescent immunostaining of type I and type III collagen production on peptide scaffolds; type: cell-based; settings: six weeks cell culture, compared to RADA16 (FIG. 5)
Protocol: as §2
After the cell fixation, the primary antibody for type I collagen (5% Anti-collagen type I, Millpore, Mass.) was added and incubated at 37° for 40 min, then washing six times with PBS with 1% BSA. The second antibody (0.5% Alexa fluor 488 goat anti-rabbit IgG, Invitrogen) was added and incubated at 37° for another 40 min, then washing as well. After that, the primary antibody for type III collagen (0.5% Anti-collagen type III, Millpore, Mass.) was added and incubated at 37° for 40 min, then washing. Finally, the second antibody (0.5% Alexa fluor 594 goat ant-mouse IgG, Invitrogen) was added and incubated at 37° for another 40 min. Nonspecific staining as a control was performed by omitting primary antibodies.

[3] = test system: Human gingival fibroblasts (HGF-1); test: Gingival fibroblast attachment and migration on peptide scaffolds (selective cell reproduction); type: cell-based; settings: Example 2 comparison study, HGF-1 (FIG. 6)
Protocol: We tested the selective cell reproduction property of the functional scaffolds, using two periodontal cells, periodontal ligament fibroblasts and gingival fibroblasts.
Human gingival fibroblasts were commercially obtained from ATCC (HGF-1) and routinely grown in the culture medium (DMEM+10% FBS) on regular cell culture flask. The cells were plated at 2×10^4 cells on the gel in the inserts. The culture medium was changed every three days.

MMP-2 = target: T1, MMP-2 (Homo sapiens, UniProt P08253); settings: reference 19b; cited from earlier work
T1 sequence (P08253 110-660): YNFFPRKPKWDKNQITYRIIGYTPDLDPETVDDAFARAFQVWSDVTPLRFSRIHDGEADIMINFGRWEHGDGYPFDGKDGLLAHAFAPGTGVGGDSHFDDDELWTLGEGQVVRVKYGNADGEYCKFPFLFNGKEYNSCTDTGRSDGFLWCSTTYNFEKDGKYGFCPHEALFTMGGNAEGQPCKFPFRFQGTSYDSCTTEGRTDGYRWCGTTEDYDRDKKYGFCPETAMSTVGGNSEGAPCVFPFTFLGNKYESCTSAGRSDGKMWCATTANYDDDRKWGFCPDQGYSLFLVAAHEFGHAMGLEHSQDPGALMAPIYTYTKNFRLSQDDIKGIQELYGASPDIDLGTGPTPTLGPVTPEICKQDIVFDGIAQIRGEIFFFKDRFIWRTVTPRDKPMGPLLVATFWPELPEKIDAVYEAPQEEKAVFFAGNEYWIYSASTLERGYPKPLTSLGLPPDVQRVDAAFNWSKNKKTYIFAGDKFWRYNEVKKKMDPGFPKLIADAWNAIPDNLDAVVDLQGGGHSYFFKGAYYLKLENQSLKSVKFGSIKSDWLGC

[4] = test system: human periodontal ligament fibroblasts (HPDLF); test: Periodontal ligament fibroblast attachment and proliferation on peptide scaffolds; type: cell-based; settings: periodontal ligament fibroblasts cultured for three weeks
Protocol: as §1, §2, §3

[5] = Tapping mode AFM analysis of nanofiber formation; type: physicochemical; settings: aqueous solutions
Source text: VEVK9 and VEVK12 are simple repeating units of amino acids VEVK (Valine-Glutamate-Valine-Lysine) which self-assemble into a nanofiber structure. The self-assembling peptide VEVK9 was functionalized either with RGD, laminin cell adhesion motifs or an MMP cleavable motif in order to mimic extracellular matrix to enhance cell maintenance and function in cell cultures. The functionalized peptides vPRG, vYIG and vIKV were synthesized with the VEVK9 sequence plus an additional motif added to the C-terminus using solid phase synthesis. One motif contains two repetitions of the RGD sequence (PRGDSGYRGDS (SEQ ID NO: 15)), and the others are cell adhesion motifs of laminin (YIGSR (SEQ ID NO: 5), IKVAV (SEQ ID NO: 6)). Glycine residues were used between the self-assembling motif VEVKVEVKV (SEQ ID NO: 2) and the functional motif as a spaced linker to keep the flexibility of the functional peptides. The MMP-2 cleavable motif (PVGLIG (SEQ ID NO: 11)) was inserted between two VEVK units. In comparison to RADA16-I and its functionalized peptides, these peptides are short sequences, maximum 20 amino acids (in vPRG), and seem to be cost-effective. The peptides were solubilized in water at a concentration of 10 mg/ml (1%, w/v). The peptides readily undergo self-assembly to form soft hydrogels. Mixing with self-assembling peptide VEVK9 or VEVK12 facilitated self-assembly and gelation. […]

| Substance | cell attachment and morphology [4] | fibroblast adhesion, proliferation and 3-D migration into scaffold [1] | also measured |
| --- | --- | --- | --- |
| Ac(RADA)4CONH2 (Ac-RADARADARADARADA-NH2) [RADA16, 1% peptide A solution; self assembling motif, obtained as PuraMatrix] | – | – | periodontal ligament fibroblast attachment and migration ([1]; Example 2 comparison study (FIG. 6)): did not show migration in both fibroblasts; type I and type III collagens production [2]: not to produce collagens; gingival fibroblast attachment and migration [3]: did not show migration in both fibroblasts |
| (RADA)3PVGLIG (RADA)3 (RADARADARADAPVGLIGRADARA) | – | – | degradability by MMP-2 (MMP-2): degradable by MMP-2 |
| Ac-VEVKVEVKVEVK-CONH2 (Ac-VEVKVEVKVEVK-NH2) [VEVK12, 1% peptide F solution] | sparse and have a rounded morphology | – | formation of nanofibers [5]: formed nanofibers |
| Ac-VEVKVEVKVGPRGDSGYRGDSGCONH2 [vPRG] | good attachment and extension | significant increases in fibroblast proliferation and migration | – |
| Ac-VEVKVEVKVGIKVAVCONH2 [vIKV] | good attachment and extension | migrate into them in the same manner | – |
| Ac-VEVKGPVGLIGVEVKCONH2 [vPVG] | – | significant increases in fibroblast proliferation and migration | – |
| Ac-VEVKVEVKVGYIGSRCONH2 [vYIG] | good attachment and extension | migrate into them in the same manner | – |
| Ac-VEVKVEVKV-CONH2 (Ac-VEVKVEVKV-NH2) [VEVK9, 1% peptide E solution] | sparse and have a rounded morphology | Only a few fibroblasts adhered | – |
